For 18 molecules, IC50 results are on record in patent US20240368177A1, “5-AMINO-6,8-DIHYDRO-1H-FURO[3,4-d]PYRROLO[3,2-b]PYRIDINE-2-CARBOXAMIDE DERIVATIVES AS MTA-COOPERATIVE INHIBITORS OF PRMT5” (BeiGene Switzerland GmbH, priority 2023, published 2024).

Some results are limits rather than exact numbers.

One experiment relates to HCT116-MTAP-KO. In words: Cell killing in HCT116 isogenic pair (Cell Titer-Glo viability), MTAP knock-out cells. It is filed as cell-based, human. Particulars: Homo sapiens, HCT-116, 144 h, 6 days incubation, 0-10 μM, * = more than 50% viability inhibition at tested concentration without a full curve. The source says: (§1) HCT116 cell line (ATCC, CCL-247) was isolated from the colon of an adult with colon cancer. It has a mutation in codon 13 of the ras proto-oncogene and can be used as a positive control for PCR assays of mutation in this codon. HCT116-MTAP-KO was knocked-out-MTAP-gene based HCT116, and a single clone was passed for this assay. HCT116-mock-RNA-KO was knocked-out-mock-gene based HCT116 with MTAP wildtype genotype. The base medium for HCT116 isogenic pair is RPMI 1640, HEPES (Gibco, 22400105). To make the complete growth medium, added the following components to the base medium: fetal bovine serum to a final concentration of 10% (Gibco, 10099-141C). The cell line was grown in a humidified 5% CO2 atmosphere at 37° C. and regularly tested for the presence of mycoplasma with MpcoAlert™ PLUS Mycoplasma Detection Kit (Lonzak LT07-710).
(§2) • Seeded HCT116-mock-RNA-KO (4E2/well) or HCT116-MTAP-KO (4E2/well) cells into a 96-well plate (Greiner: 655090), 100 μL/well. • Incubated at 37° C., 5% CO2, overnight. • Added 50 μL fresh growth medium containing serial dilution of test compounds for a final test compound concentration of 0-10 μM to each well. • Incubated at 37° C., 5% CO2, 6 days. • The cell viability was detected by Cell Titer-Glo (Promega, G7573). Added 70 μL of CeliTiter-Glo® reagent in each well. • Incubated at room temperature for 10 minutes to stabilize luminescent signal. • Analyzed with Microplate Reader (TECAN, SPARK) and fit IC50 using Prism® 9.
On the technique in general: ATP-based viability assays read luminescence as a measure of living cells.

A further experiment deals with HCT116-mock-RNA-KO. In words: Cell killing in HCT116 isogenic pair (Cell Titer-Glo viability), mock knock-out cells with MTAP wildtype genotype. Particulars: Homo sapiens, HCT-116, 144 h, 6 days incubation, 0-10 μM. The experiment is classed as cell-based, human.
Description: as §1, §2

For `CN(C(=O)c1cc2nc(N)c3c(c2[nH]1)COC3)[C@@H]1COCc2cc(Br)ccc21` [Example 63, (S)-5-amino-N-(7-bromoisochroman-4-yl)-N-methyl-6,8-dihydro-1H-furo[3,4-d]pyrrolo[3,2-b]pyridine-2-carboxamide], the figures for the IC50 in the experiment on HCT116-MTAP-KO and with HCT116-mock-RNA-KO were 22 nM and 2500 nM, respectively.
On the same counts, the results for `CCN(C(=O)c1cc2nc(N)c3c(c2[nH]1)COC3)[C@@H](C)c1ncc(C(F)(F)F)cc1F` [Example 111, (S)-5-amino-N-ethyl-N-(1-(3-fluoro-5-(trifluoromethyl)pyridin-2-yl)ethyl)-6,8-dihydro-1H-furo[3,4-d]pyrrolo[3,2-b]pyridine-2-carboxamide] are 2200 nM and greater than 10000 nM.
For the molecule `CN(C(=O)c1cc2nc(N)c3c(c2[nH]1)COC3)[C@H]1COCc2cc(C(F)(F)F)ccc21` [Example 39, (R)-5-amino-N-methyl-N-(7-(trifluoromethyl)isochroman-4-yl)-6,8-dihydro-1H-furo[3,4-d]pyrrolo[3,2-b]pyridine-2-carboxamide], the results for the IC50 in the experiment on HCT116-MTAP-KO and in the experiment with HCT116-mock-RNA-KO were 1170 nM and greater than 10000 nM, respectively.
With `CCN(C(=O)c1cc2nc(N)c3c(c2[nH]1)COC3)[C@H]1COCc2cc(C(F)(F)F)ccc21` [Example 55, (R)-5-amino-N-ethyl-N-(7-(trifluoromethyl)isochroman-4-yl)-6,8-dihydro-1H-furo[3,4-d]pyrrolo[3,2-b]pyridine-2-carboxamide], the IC50 (usually the concentration that inhibits the measured activity by half) in the experiment with HCT116-MTAP-KO is 1640 nM; in the experiment with HCT116-mock-RNA-KO it was greater than 10000 nM.
For `CCN(C(=O)c1cc2nc(N)c3c(c2[nH]1)COC3)[C@@H](C)c1ccc(C2CC2)cn1` [Example 113, (S)-5-amino-N-(1-(5-cyclopropylpyridin-2-yl)ethyl)-N-ethyl-6,8-dihydro-1H-furo[3,4-d]pyrrolo[3,2-b]pyridine-2-carboxamide] the same measures were 1610 nM and greater than 10000 nM.
On the same counts, the results for `CCN(C(=O)c1cc2nc(N)c3c(c2[nH]1)CO[C@@H]3C)[C@H](C)c1ncc(Br)cc1F` [Example 128, (R)-5-amino-N—((R)-1-(5-bromo-3-fluoropyridin-2-yl)ethyl)-N-ethyl-6-methyl-6,8-dihydro-1H-furo[3,4-d]pyrrolo[3,2-b]pyridine-2-carboxamide] are 6 nM and 1050 nM.
For `Nc1nc2cc(C(=O)N(Cc3ccc(-c4c(F)cccc4F)cn3)[C@@H]3CCOc4ccccc43)[nH]c2c2c1COC2` [Example 12, 5-amino-N-(chroman-4-yl)-N-((5-(2,6-difluorophenyl)pyridin-2-yl)methyl)-6,8-dihydro-1H-furo[3,4-d]pyrrolo[3,2-b]pyridine-2-carboxamide] the same measures were 29 nM and 1910 nM.
Take `CCN(C(=O)c1cc2nc(N)c3c(c2[nH]1)COC3)[C@H](C)c1ccc(Br)cc1F` [Example 133, (R)-5-amino-N-(1-(4-bromo-2-fluorophenyl)ethyl)-N-ethyl-6,8-dihydro-1H-furo[3,4-d]pyrrolo[3,2-b]pyridine-2-carboxamide]: the IC50 with HCT116-MTAP-KO came to 13 nM; in the experiment on HCT116-mock-RNA-KO, 1340 nM.
On the same counts, the results for `CC[C@H]1OC[C@@H](N(C)C(=O)c2cc3nc(N)c4c(c3[nH]2)COC4)c2ccc(C(F)(F)F)cc21` [Example 94, 5-amino-N-((1R,4S)-1-ethyl-7-(trifluoromethyl)isochroman-4-yl)-N-methyl-6,8-dihydro-1H-furo[3,4-d]pyrrolo[3,2-b]pyridine-2-carboxamide] are 3.8 nM and 578 nM.
On the same counts, the results for `CO[C@@H]1CCOC[C@H]1N(Cc1ccc(-c2c(F)cccc2F)cn1)C(=O)c1cc2nc(N)c3c(c2[nH]1)CO[C@@H]3C` [Example 23, (R)-5-amino-N-((5-(2,6-difluorophenyl)pyridin-2-yl)methyl)-N-((3R,4R)-4-methoxytetrahydro-2H-pyran-3-yl)-6-methyl-6,8-dihydro-1H-furo[3,4-d]pyrrolo[3,2-b]pyridine-2-carboxamide] are 4.8 nM and 81 nM.
As for `CN(C(=O)c1cc2nc(N)c3c(c2[nH]1)COC3)[C@@H]1CCOc2cc(C(F)(F)F)ccc21` [Example 162, (R)-5-amino-N-methyl-N-(7-(trifluoromethyl)chroman-4-yl)-6,8-dihydro-1H-furo[3,4-d]pyrrolo[3,2-b]pyridine-2-carboxamide], the IC50 in the experiment with HCT116-MTAP-KO is 186 nM; in the experiment with HCT116-mock-RNA-KO, greater than 10000 nM.
Take `CCN(C(=O)c1cc2nc(N)c3c(c2[nH]1)COC3)[C@H]1COCc2cc(F)cc(F)c21` [Example 76, (R)-5-amino-N-(5,7-difluoroisochroman-4-yl)-N-ethyl-6,8-dihydro-1H-furo[3,4-d]pyrrolo[3,2-b]pyridine-2-carboxamide]: the IC50 is 2110 nM in the experiment on HCT116-MTAP-KO and greater than 10000 nM with HCT116-mock-RNA-KO.
On the same counts, the results for `CCC(CC)N(Cc1ncc(N2CCOCC2)cc1F)C(=O)c1cc2nc(N)c3c(c2[nH]1)COC3` [Example 117, 5-amino-N-((3-fluoro-5-morpholinopyridin-2-yl)methyl)-N-(pentan-3-yl)-6,8-dihydro-1H-furo[3,4-d]pyrrolo[3,2-b]pyridine-2-carboxamide] are 6.5 nM and 609 nM.
On to `CCN(C(=O)c1cc2nc(N)c3c(c2[nH]1)CO[C@@H]3C)[C@@H](C)c1ncc(Br)cc1F` [Example 129, (R)-5-amino-N—((S)-1-(5-bromo-3-fluoropyridin-2-yl)ethyl)-N-ethyl-6-methyl-6,8-dihydro-1H-furo[3,4-d]pyrrolo[3,2-b]pyridine-2-carboxamide], for which the results for the IC50 in the experiment on HCT116-MTAP-KO and in the experiment with HCT116-mock-RNA-KO were 1180 nM and greater than 10000 nM, respectively.
For `CCN(C(=O)c1cc2nc(N)c3c(c2[nH]1)CO[C@@H]3C)[C@@H](C)c1ccc(C2CC2)cc1F` [Example 176, (R)-5-amino-N—((S)-1-(4-cyclopropyl-2-fluorophenyl)ethyl)-N-ethyl-6-methyl-6,8-dihydro-1H-furo[3,4-d]pyrrolo[3,2-b]pyridine-2-carboxamide] the same measures were 452 nM and 1780 nM.
On the same counts, the results for `N#Cc1cc(F)c(CN(Cc2c(F)cccc2F)C(=O)c2cc3nc(N)c4c(c3[nH]2)COC4)c(F)c1` [Example 22, 5-amino-N-(4-cyano-2,6-difluorobenzyl)-N-(2,6-difluorobenzyl)-6,8-dihydro-1H-furo[3,4-d]pyrrolo[3,2-b]pyridine-2-carboxamide] are less than 1.5 nM and 11 nM.
For `C[C@@H]1OC[C@H](N(C)C(=O)c2cc3nc(N)c4c(c3[nH]2)COC4)c2ccc(C(F)(F)F)cc21` [Example 58, 5-amino-N-methyl-N-((1S,4R)-1-methyl-7-(trifluoromethyl)isochroman-4-yl)-6,8-dihydro-1H-furo[3,4-d]pyrrolo[3,2-b]pyridine-2-carboxamide] the same measures were 1080 nM and greater than 10000 nM.
Take `CCN(C(=O)c1cc2nc(N)c3c(c2[nH]1)COC3)[C@@H](C)c1ccc(C(F)(F)F)cc1F` [Example 136, (S)-5-amino-N-ethyl-N-(1-(2-fluoro-4-(trifluoromethyl)phenyl)ethyl)-6,8-dihydro-1H-furo[3,4-d]pyrrolo[3,2-b]pyridine-2-carboxamide]: the IC50 with HCT116-MTAP-KO is 245 nM; in the experiment on HCT116-mock-RNA-KO it was 3520 nM.
